Literature values, collected in patent US12728131B2, “Compositions for the treatment of glaucoma and ocular hypertension” (Nicox S.A., priority 2020, dated 2026).
Where two headings read alike, the source gives them in different places.

Settings: phase 2 dose-ranging VOYAGER study

**Q.** For O=C(CCC/C=C\C[C@@H]1[C@@H](CC[C@@H](O)CCc2ccccc2)[C@H](O)C[C@@H]1O)OCCCCO[N+](=O)[O-] [latanoprostene bunod], which “reduction in mean diurnal IOP” value (0.024%) is on record?
**A.** The value was 9.0 mmHg.

**Q.** For CC(C)OC(=O)CCC/C=C\C[C@@H]1[C@@H](CC[C@@H](O)CCc2ccccc2)[C@H](O)C[C@@H]1O [latanoprost, propan-2-yl (Z)-7-[(1R,2R,3R,5S)-3,5-dihydroxy-2-[(3R)-3-hydroxy-5-phenylpentyl]cyclopentyl]hept-5-enoate], which “reduction in mean diurnal IOP” value (0.005%) is on record?
**A.** The value was 7.77 mmHg.
